Results published in US20130101509A1, “IMAGING AND RADIOTHERAPY METHODS” (GENERAL ELECTRIC COMPANY, priority 2008, published 2013).

Tests used:
[1] = biological target: T1, Aldehyde Dehydrogenase (Yeast ALDH) (Saccharomyces cerevisiae, UniProt P46367); experiment: ALDH assay by spectroscopic method (screening for ALDH activity); type: biochemical; details: substrate reagent 50 μM in 0.1M TrisHCl pH 8.0, change in absorbance or fluorescence as a function of time
T1 sequence (P46367 25-519): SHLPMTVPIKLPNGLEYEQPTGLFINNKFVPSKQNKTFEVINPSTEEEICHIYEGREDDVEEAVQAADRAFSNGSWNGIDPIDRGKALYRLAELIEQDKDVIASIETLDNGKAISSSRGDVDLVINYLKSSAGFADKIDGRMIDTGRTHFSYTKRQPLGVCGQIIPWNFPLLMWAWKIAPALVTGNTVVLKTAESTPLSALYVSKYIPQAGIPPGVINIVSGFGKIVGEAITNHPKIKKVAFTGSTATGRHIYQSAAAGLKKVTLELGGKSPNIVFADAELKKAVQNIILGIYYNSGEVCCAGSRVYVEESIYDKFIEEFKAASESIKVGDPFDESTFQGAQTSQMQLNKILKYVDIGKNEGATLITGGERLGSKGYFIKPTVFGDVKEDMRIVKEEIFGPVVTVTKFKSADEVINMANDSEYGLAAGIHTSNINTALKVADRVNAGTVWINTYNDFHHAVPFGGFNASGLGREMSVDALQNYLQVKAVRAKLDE
Excerpt: Aldehyde Dehydrogenase is an enzyme that acts on aldehydes as substrates and converts them to acid (products).
Designing and Standardization of ALDH Assay: • following the conversion of NAD+ to NADH typically one does the ALDH assays.
[drawing 72] • The formation of NADH is monitored by measuring the absorbance at 340 nm. However, before employing this method, the compounds were screened for their spectral properties, especially to avoid any interference in absorbance either from the substrate or the product.
Such compounds were further screened for their fluorescence properties by recording their excitation/emission wavelengths.
ALDH Assay by Spectroscopic Method: • The ALDH assay is designed to measure either the utilization of the substrate or formation of product by measuring at their unique wavelengths (Absorbance or Fluorescence).
All the spectral studies for the compounds were carried out in 0.1M Tris HCl pH 8.0 buffer. CSCT Compounds were initially dissolved in Methanol (˜2.0 mg/mL). The compounds were further diluted in 0.1M Tris HCl pH 8.0 buffer (concentration ranging from ˜20 to 50 μg/mL). The Spectra was recorded using Spectramax M5.
The ALDH activity can be followed either by monitoring the conversion of β-NAD^+ to β-NADH or by directly monitoring the product/substrate. The conversion of β-NAD^+ to β-NADH yields increasing in absorbance at 340 nm. If either the substrate/products have any spectral interference at this wavelength then unique absorbance/fluorescence wavelength of either product/substrate are used. The measurements were taken on Spectromax M5.
• 1. Reagent 1: 1 M Tris HCl Buffer, pH 8.0 at 25° C. (Prepare 50 ml in deionized water using Trizma Base, Sigma Prod. No. T-1503. Adjust to pH 8.0 at 25° C. with 1 M HCl.) • 2. Reagent 2: 20 mM β-Nicotinamide Adenine Dinucleotide, Oxidized Form, Solution (β-NAD^+) (Prepare 1 ml in deionized water using β-Nicotinamide Adenine Dinucleotide, PREPARE FRESH). • 3. Reagent 3: 3 M Potassium Chloride Solution (KCl) (Prepare 1 ml in deionized water using Potassium Chloride). • 4. Reagent 4: 1 M 2-Mercaptoethanol Solution (2-ME) (Prepare 1 ml in deionized water using 2-Mercaptoethanol. PREPARE FRESH.) • 5. Reagent 5: 100 mM Tris HCl Buffer with 0.02% (w/v) Bovine Serum Albumin, pH 8.0 at 25° C. (for Enzyme Dilution). • 6. Reagent 6: Aldehyde Dehydrogenase Enzyme Solution (Yeast ALDH). Immediately before use, prepare a solution containing 0.5-1 unit/ml of Aldehyde Dehydrogenase in cold Reagent 5).
Pipette (in milliliters) the following reagents into vial:
In a 3.00 ml reaction mix, the final concentrations are 103 mM Tris HCl Buffer (Reagent 1), 0.67 mM β-nicotinamide adenine dinucleotide (Reagent 2), 100 mM potassium chloride (Reagent 3), 10 mM 2-mercaptoethanol (Reagent 4), 0.0007% (w/v) bovine serum albumin (Reagent 5) and 0.05-0.1 unit aldehyde dehydrogenase (Reagent 6).

[2] = test system: ALDH; experiment: Cell based ALDH assay: competition against ALDEFLUOR in SK-BR-3 cells, FACS
Description: Briefly, the compound was dissolved in DMSO and competed against ALDEFLUOR™, a BODIPY-conjugated ALDH substrate, in a cell-based assay using SK-BR-3 cells. The BODIPY fluorescence in the cell samples were measured using FACS at 488 nm. The median fluorescence of each sample was measured and fitted to a sigmoidal dose-response curve for calculation of IC50 using Prism Graphpad.
6-(2-fluoroethyloxy)-2-naphthaldehyde was dissolved and diluted in DMSO prior to use.
SK-BR-3 cells, a cell line reported to have a high expression of ALDH+ cells, was used for all experiments. The cells were cultured in RPMI media supplemented with 10% fetal bovine serum and 2 mM L-glutamine, in 37° C., 5% CO2. On the day of assay, cells were harvested by trypsination, centrifuged, and re-suspended in ALDEFLUOR™ assay buffer to a concentration of 1×10^6 cells.
The compound was competed against ALDEFLUOR™, a BODIPY-conjugated ALDH substrate. […] Following incubation at 37° C., the fluorescence was measured in each sample by FACS at 488 nm. […]
The median fluorescence of each sample was calculated, and the values were then normalized and fitted to a dose-response curve for calculation of IC50 using Prism Graphpad.

SMILES: O=Cc1ccc2ccccc2c1 [2-Naphthaldehyde]
- Comments (ALDH assay screening result) [1]: Active

SMILES: COc1cccc(C=O)c1 [3-anisladehyde]
- Comments (ALDH assay screening result) [1]: Active

SMILES: O=Cc1ccc(I)cc1 [4-Iodobenzaldehyde]
- Comments (ALDH assay screening result) [1]: Active

SMILES: O=Cc1ccc(F)cc1 [4-fluorobenzaldehyde]
- Comments (ALDH assay screening result) [1]: Active

SMILES: COc1ccc2cc(C=O)ccc2c1 [6-Methoxy-2-Naphthaldehyde]
- Comments (ALDH assay screening result) [1]: Active

SMILES: O=CCCNC(=O)c1ccc(F)cc1 [Example 2, (2-formylethyl)-4-fluorobenzamide]
- Comments (ALDH assay screening result) [1]: Not active

SMILES: O=Cc1ccc2cc(OCCCF)ccc2c1 [Example 3, 6-(3-fluororpropyloxy)-2-naphthaldehyde]
- Comments (ALDH assay screening result) [1]: Active

SMILES: O=Cc1ccc2cc(OCCF)ccc2c1 [Example 3A, 6-(2-fluoroethyloxy)-2-naphthaldehyde]
- Displacement of ALDEFLUOR (decrease in fluorescence with increasing compound concentration) ([2]; FACS at 488 nm): displaced ALDEFLUOR™
- IC50 ([2]; competition against ALDEFLUOR, BODIPY fluorescence by FACS at 488 nm, compound 0.005-50 μM): 330 nM
- Comments (ALDH assay screening result) [1]: Active
